Measured values as given in patent publication US5192760A, “3-carbalkoxyamino-5-(alpha-aminopropionyl)-5H-dibenz[b,f]azepines and method for their making” (priority 1989, dated 1993).
Where two headings read alike, the source gives them in different places.

Tests used:
[1] = in vivo; type: in vivo, female Wistar rats; details: in vivo
Experimental: (§1) ED73 iv. and po. are the dose in mg/kg, body weight which inhibits aconitine in female Wistar rats after iv. or po. administration of the test substance up to the occurrence of isolated ventricular extrasystolae. The procedure is also described by K. Femmer et al., in Pharmazie, vol. 31, page 36 (1976). The test substances are administered 2 minutes before the aconitine if given iv., and 60 minutes before the aconitine if given orally. The data is analyzed by the Probit regression analysis with a confidence interval of p=0.05 (values in parentheses).
(§2) Q1 is the ratio of […]. to determine the absorption, and Q2 is the ratio of LD50 iv. /ED73 iv. to determine the therapeutic breadth.

[2] = test system: Aconitine (rat); test: animal or person; type: in vivo, female Wistar rats; details: Rattus norvegicus
Experimental: as §1, §2

[3] = in vivo; set-up: species or system male or female Wistar rats; details: Wistar rat, iv. in tail vein, p=0.05 confidence interval in parentheses
Excerpt: LD50 iv. is the lethal dose in mg/kg body weight for 50% of the experimental animals of an orientating acute toxicity test on male or female Wistar rats of our own breed, iv. administration in the tail vein, 3-4 dosages, 10 animals per group. Data analyzed by the Probit regression analysis with a confidence interval of p=0.05 (values in parentheses).

[4] = ratio of ED73 po. to ED73 iv., rat aconitine, read-out: Q1 (ED73 po. /ED73 iv.), absorption ratio
[5] = ratio of LD50 iv. to ED73 iv., rat, read-out: Q2 (LD50 iv. /ED73 iv.), therapeutic breadth

Compound | selectivity ratio [1, 4] | selectivity ratio [1, 5] | ED73 ([2]; iv, read-out: ED73 iv.) | ED73 ([2]; po, read-out: ED73 p.o.) | ED50 ([2]; iv, read-out: ED50 iv. (printed in the ED73 p.o. column)) | LD50 [3]
CCOC(=O)Nc1ccc2c(c1)N(C(=O)CN(C)C)c1ccccc1CC2 [Bonnecor, 3carbethoxyamino-5-dimethylaminoacetyl-10,11-dihydro-5H-dibenz[b,f,]azepine, reference compound] | 20 | 39 | 0.28 mg/kg | 5.7 mg/kg | – | –
Cc1cccc(C)c1OCC(C)N (stereo not drawn) [Mexiletin, reference compound] | – | – | 15 mg/kg | – | 91 mg/kg | –
CCOC(=O)Nc1ccc2c(c1)N(C(=O)CCN1CCOCC1)c1ccccc1S2 [Moracizin, reference compound] | 102 | 10 | 1.1 mg/kg | 112 mg/kg | – | –
CCOC(=O)Nc1ccc2c(c1)N(C(=O)C(C)N(C)C)c1ccccc1CC2 (stereo not drawn) [Test No. 1] | 10 | 8 | 2.4 mg/kg | 24 mg/kg | – | 20 mg/kg
CCOC(=O)Nc1ccc2c(c1)N(C(=O)C(C)N(CC)CC)c1ccccc1CC2 (stereo not drawn) [Test No. 2] | 9 | 9 | 1.3 mg/kg | 11 mg/kg | – | 12 mg/kg
CCOC(=O)Nc1ccc2c(c1)N(C(=O)C(C)N1CCOCC1)c1ccccc1CC2 (stereo not drawn) [Test No. 3] | – | ~2 | 47 mg/kg | > 80 mg/kg | – | > 70 mg/kg
CCOC(=O)Nc1ccc2c(c1)N(C(=O)C(C)NC)c1ccccc1CC2 (stereo not drawn) [Test No. 4, 3-Carbethoxyamino-5-(α-methylaminopropionyl)-10,11-dihydro-5H-dibenz[b,f]-azepine] | 158 | 100 | 0.12 mg/kg | 19 mg/kg | – | 12 mg/kg
CCNC(C)C(=O)N1c2ccccc2CCc2ccc(NC(=O)OCC)cc21.Cl (stereo not drawn) [Test No. 5, 3-carbethoxyamino-5-(α-ethylaminopropionyl)-10,11-dihydro-5H-dibenz[b,f]azepine hydrochloride] | 44 | 39 | 0.16 mg/kg | 7 mg/kg | – | 9.3 mg/kg
CNC(C)C(=O)N1c2ccccc2CCc2ccc(NC(=O)OC(C)C)cc21 (stereo not drawn) [compound 6] | 22 | 38 | 0.55 mg/kg | 12 mg/kg | – | 21 mg/kg
CCNC(C)C(=O)N1c2ccccc2CCc2ccc(NC(=O)OC(C)C)cc21 (stereo not drawn) [compound 7] | 61 | 30 | 0.33 mg/kg | 20 mg/kg | – | 10 mg/kg
CNC(C)C(=O)N1c2ccccc2CCc2ccc(NC(=O)OC)cc21 (stereo not drawn) [compound 8] | 16 | 28 | 0.86 mg/kg | 14 mg/kg | – | 24 mg/kg
COC(=O)Nc1ccc2c(c1)N(C(=O)C(C)NCCO)c1ccccc1CC2 (stereo not drawn) [compound 9] | – | 14 | 4 mg/kg | – | – | 55 mg/kg
CCOC(=O)Nc1ccc2c(c1)N(C(=O)C(C)NC)c1ccccc1C=C2 (stereo not drawn) [compound 10] | 6.5 | 19 | 0.75 mg/kg | 4.9 mg/kg | – | 14 mg/kg
CCNC(C)C(=O)N1c2ccccc2C=Cc2ccc(NC(=O)OCC)cc21 (stereo not drawn) [compound 11] | 18 | 18 | 0.8 mg/kg | 14 mg/kg | – | 14 mg/kg
CCCNC(C)C(=O)N1c2ccccc2CCc2ccc(NC(=O)OCC)cc21 (stereo not drawn) [compound 12] | 22 | 16 | 0.16 mg/kg | 3.5 mg/kg | – | 2.5 mg/kg
CCOC(=O)Nc1ccc2c(c1)N(C(=O)C(C)N)c1ccccc1CC2 (stereo not drawn) [compound 13] | 45 | 68 | 0.31 mg/kg | 14 mg/kg | – | 21 mg/kg
